Measurements taken from patent US20260317332A1, “BICYCLIC HETEROCYCLE COMPOUNDS FOR THE TREATMENT OF CANCER” (Hoffmann-La Roche Inc., priority 2023, published 2026).

Tests used:
CD4+ T cells = test: T Cell Proliferation Assay: CD4+ T cell proliferation; format: cell-based; conditions: Homo sapiens, high AMP condition (200 μM AMP, 5 μM EHNA), CD3/CD28 beads, 72 hours, read-out: CD4+ T cell proliferation EC50 (rescue of proliferation)
Method: (§1) The purpose of this assay is to characterize the potency of inhibitors of CD73 in rescuing adenosine-mediated inhibition of T cell proliferation. CD4+ or CD8+ T cells were isolated from peripheral blood mononuclear cells (PBMCs, HemaCare) by immunomagnetic negative selection using EasySep™ Isolation Kit (STEMCELL Technologies) following the supplier's protocol. Pan T cells were pelleted by centrifugation at 300 gravitational force (g) for 5 minutes at room temperature and re-suspended in PBS. CellTrace™ Violet staining solution (Invitrogen) was added at 1:5,000 and incubated at 37° C. for 20 minutes, protected from light. Complete culture medium [RPMI-1640 (Gibco), 10% Fetal Bovine Serum (Gibco), 2 mM GlutaMAX (Gibco) and 1 mM Sodium Pyruvate (Gibco), 100 U/mL Penicillin-Streptomycin (Gibco) and MEM non-essential amino acids (NEAA) cell culture supplement (1:100, Gibco)] was then added, mixed, and incubated at 37° C. for 5 minutes. Cells were then pelleted by centrifugation at 300 g for 5 minutes at room temperature and re-suspended in fresh, pre-warmed complete culture medium. 50 μL of cells were seeded per well in 96 well u-bottom plates. 50 μL of CD3/CD28 beads-containing medium and 50 μL of media containing compounds were added into cells. 50 μL of media containing AMP and EHNA hydrochloride (Sigma-Aldrich) was added into cells at 200 μM and 5 μM final concentration, respectively. Cells were incubated for 72 hours at 37° C. in a 5% CO2 incubator. 200 μL of PBS was then added to each well and cells were centrifuged at 300 g, 4° C. for 10 minutes. The supernatant was discarded. 50 μL of Human TruStain FcX™ (Fc Receptor Blocking Solution, BioLegend) diluted 1:100 in PBS was added to each well, mixed gently and incubated for 20 minutes at 4° C. 50 μL of staining solution (BioLegend) was added to each well, mixed gently and incubated at 4° C. for 30 minutes. Cells were centrifuged at 300 g, 4° C. for 10 minutes and the supernatant was discarded. The cell pellets were washed with 250 μL of cell staining buffer and centrifuged at 300 g, 4° C. for 10 minutes. The supernatant was discarded and cells were re-suspended in 60 μL of cell staining buffer and analyzed on a flow cytometer.

CD73 [1] = target: T1, CD73 (Homo sapiens, UniProt P21589); test: CD73 Cellular Assay; format: cell-based; design: 40 μL of MDA-MB-231 cells (ATCC, HTB-26, breast cancer); host or cells: MDA-MB-231; conditions: MDA-MB-231 cells; 200 μM AMP working solution; 45 min at 37° C.; malachite readout; read-out: Cellular IC50 against CD73
T1 sequence (P21589 27-574): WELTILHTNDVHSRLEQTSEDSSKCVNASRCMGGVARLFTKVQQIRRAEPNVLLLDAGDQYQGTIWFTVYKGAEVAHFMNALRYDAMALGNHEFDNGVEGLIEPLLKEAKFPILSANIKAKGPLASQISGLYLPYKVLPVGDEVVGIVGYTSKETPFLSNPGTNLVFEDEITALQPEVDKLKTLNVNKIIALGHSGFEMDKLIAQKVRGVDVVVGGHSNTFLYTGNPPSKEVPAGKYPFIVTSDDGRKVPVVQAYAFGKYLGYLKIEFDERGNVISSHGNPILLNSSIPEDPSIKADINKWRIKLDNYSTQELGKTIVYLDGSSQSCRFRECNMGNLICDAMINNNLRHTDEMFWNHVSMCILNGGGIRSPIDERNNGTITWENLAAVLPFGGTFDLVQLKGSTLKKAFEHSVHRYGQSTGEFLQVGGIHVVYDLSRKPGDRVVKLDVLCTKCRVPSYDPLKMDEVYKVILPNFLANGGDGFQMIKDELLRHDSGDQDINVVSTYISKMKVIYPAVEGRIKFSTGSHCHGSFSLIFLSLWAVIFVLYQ
Procedure, shortened: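 MDA-MB-231 cells (20,000 cells/mL) in HEPES pH 7.4 buffer preincubated 30 min with 1:3 compound dilutions, then AMP (200 μM working solution) added for 45 min at 37 °C, 5% CO2. Released phosphate in supernatant detected by malachite green absorbance at 620 nm; % inhibition normalised to neutral and inhibitor controls.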

CD8+ T cells = test: T Cell Proliferation Assay: CD8+ T cell proliferation; format: cell-based; conditions: high AMP condition (200 μM AMP, 5 μM EHNA), CD3/CD28 beads, 72 hours, read-out: CD8+ T cell proliferation EC50 (rescue of proliferation)
Method: as §1

CD73 [2] = target: T1, CD73; test: Human CD73 Biochemical Assay; conditions: 0.05 nM recombinant CD73; AMP 5.56 μM final; 10 min at room temperature; LC/MS adenosine readout; read-out: Enzymatic IC50 against human CD73
Procedure, shortened: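 Recombinant CD73 at 0.05 nM was preincubated with compound 15 min at room temperature in Tris pH 7.5 buffer with 1 mM NaH2PO4. Reaction ran 10 min with 5.56 μM AMP final and was stopped with TCA. Adenosine was quantified by LC-MS/MS MRM against a 13C5-adenosine internal standard using peak area ratios.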

**Q.** What does the source list for Cn1nc(O[C@H](c2cc(OC3CC(F)(F)C3)ncn2)C(F)F)c2cc(-c3c[nH]c(=O)[nH]c3=O)nnc21 [Example 42A, 5-[3-[(1R)-1-[6-(3,3-difluorocyclobutoxy)pyrimidin-4-yl]-2,2-difluoro-ethoxy]-1-methyl-pyrazolo[3,4-c]pyridazin-5-yl]-1H-pyrimidine-2,4-dione]?
**A.** EC50 (CD4+ T cells): 0.22 nM; IC50 (CD73 [1]): 0.76 nM; EC50 (CD8+ T cells): 0.18 nM; IC50 (CD73 [2]): 0.06 nM
